Experimental data reported in patent US20240316027A1, “USE OF MARAVIROC IN PREPARATION OF DRUGS FOR TREATMENT OF MUSCLE DEGENERATIVE DISEASES” (Center for Neuromusculoskeletal Restorative Medicine Limited, priority 2023, published 2024).

How the values were obtained:
[1] = tested on: aged mice with sarcopenia; assay: Maraviroc treatment of aged mice with sarcopenia; assay type: in vivo, mouse; conditions: 16-month-old mice, 2.5 mg/kg intraperitoneally twice a week for 6 months
Method: Next, to further illustrate the possible application for treating other muscle degenerative diseases, the effectiveness of Maraviroc is tested in aged mice with sarcopenia. 3 pairs of 16-month-old mice are intraperitoneally injected with vehicle (5% DMSO) or Maraviroc (2.5 mg/kg) twice a week for 6 months, as shown in FIG. 7. […] Overall, the Maraviroc treatment delays muscle aging and rejuvenates the mice.

[2] = tested on: dKO mice; assay: Maraviroc treatment of dystrophic dKO (YY1; mdx) and Ctrl mice, DMD mouse model; assay type: in vivo; conditions: for voluntary exercise (running distance on exercise wheels): recorded daily for one week, FIG. 6
Description: The research object of this invention is based on a mouse model of human Duchenne muscular dystrophy (DMD), a congenital mutation in the muscular dystrophy protein leading to spontaneous periodic muscle damage and repair. Chronic inflammation and fibrosis are typical hallmarks of DMD and may contribute to impaired skeletal muscle regeneration. […] These YY1; mdx mice (so called double knock out dKO) display decreased body and muscle weight, severe inflammation and fibrosis, and reduced lifespan. As illustrated in FIGS. 1A-1D, the body weights are continuously monitored and measured at 3M, 5M and 7M intervals and the dKO mice show continuous weight loss compared to Ctrl mice (see FIG. 1A) as time progresses. Furthermore, the reduction in muscle weight (tibialis anterior) and thickness (diaphragm) is also observed over time in contrast to Ctrl mice (see FIG. 1B). […] Meanwhile, excessive inflammation is observed on the dKO muscles as shown by the amount of immune cells infiltration in the interstitial area (see FIG. 1C), along with aggravated fibrosis (detected by Masson's Trichrome staining, see FIG. 1D).
To test the therapeutic effect of Maraviroc on the dystrophic muscles, the above-described Ctrl and dKO mice are treated with dimethyl sulfoxide (DMSO) or Maraviroc respectively.
Next, the muscle morphology is evaluated on the above-treated four groups of mice.
Next it is examined if the treatment improves muscle functions by testing the muscle performance in exercises. Both endurance and voluntary exercises are employed. For endurance exercise, mice are first placed in a treadmill machine, where the bottom of the running track is equipped with an electric shock device to force the mice to continue running as illustrated in FIG. 5. The initial speed is set to 10 cm/s and increased by 5 cm/s every two minutes. By recording the running distance until the mice are exhausted, their endurance strength is determined. […] For voluntary exercise, the mice are placed in cages equipped with exercise wheels, which are connected to counters that accurately record the distance travelled by the mice on the wheels, as illustrated in FIG. 6. The mice are continuously housed in the cages for one week, and their exercise distance on the wheels is recorded daily.

[3] = Phase IIa study; cited from earlier work
[4] = dKO mice, 60 ug in 5% DMSO intraperitoneally every two days for one month, FIG. 2

Cc1nnc(C(C)C)n1[C@@H]1C[C@H]2CC[C@@H](C1)N2CC[C@H](NC(=O)C1CCC(F)(F)CC1)c1ccccc1 [Maraviroc]
TA muscle weight ([1]; FIG. 8): restored | fiber size ([1]; FIG. 8): increased | inflammation ([1]; FIG. 8): attenuated | muscle morphology (H&E staining) ([1]; FIG. 8): remarkable improvement | muscle functions (grip force and treadmill running) ([1]; FIG. 9): restored | number of FAPs and macrophages ([1]; FIG. 10): reduced number | number of MuSCs ([1]; FIG. 10): increased number | muscle morphology, immune cell infiltration and inflammation (H&E staining of TA muscles) ([2]; Ctrl and dKO muscles, FIG. 3): improved morphology with reduced immune cell infiltration and inflammation | effect on body weight of Ctrl mice ([2]; Ctrl mice, 60 ug intraperitoneally every two days for one month, FIG. 2): no obvious effect | voluntary exercise (running distance on exercise wheels) ([2]; Ctrl mice): high level of voluntary exercise | endurance strength (treadmill running distance until exhausted) ([2]; dKO mice, versus dKO mice treated with DMSO, FIG. 5): significantly higher | body weight [2, 4]: significantly restored | muscle weight [2, 4]: significantly restored | muscle fibrosis (Masson's Trichrome staining) ([2]; dKO mice, FIG. 4): significantly alleviate | voluntary exercise (running distance on exercise wheels) ([2]; dKO mice): consistent increase in running distance over time | efficacy in the treatment of RA [3]: no efficacy
